Common to all, as to assay type: biochemical
One assay addresses T1, α-synuclein (α-syn) (Homo sapiens, UniProt P37840).
T1 construct: purchased rPeptide
Kind of assay: Thioflavin-T (ThT) fluorescence assay of α-syn fibril formation. As to the method: (§1) Thioflavin-T (ThT) fluorescence assays. Thioflavin-T (ThT) fluorescence assays were used to monitor fibril formation of recombinant Ap (fragments 1-40 and 1-42), recombinant α-syn, recombinant tau isoform 2N4R, synthetic IAPP, and synthetic TTR peptides treated with BTA and its derivatives. The IAPP ThT assay was performed in 10 mM PBS (pH 7.4) at a final concentration of 10 μM for both IAPP and ThT as published previously. Aβ fragments 1-40 and 1-42 were tested at 7 μM in 10 mM of PBS using ThT at a final concentration of 20 μM. Kinetics of α-syn fibrillization were performed as published previously.^36-37 TTR fragment kinetics of fibril formation were assessed at 10 μM in 100 mM sodium acetate buffer supplemented with 100 mM KCl and 1 mM ethylenediaminetetraacetic acid (EDTA) (pH 4) with 20 μM ThT. The fluorescence emission experiments were performed with the excitation and emission wavelengths set at 440 and 485 nm, respectively, with a Synergy HT multi-mode microplate reader (BioTek, Winooski, VT). Samples were measured in three replicates, and the experiments were repeated three times using at least two different stock solutions. For each time point, arbitrary units of fluorescence were calculated from the mean values normalized against the maximum value in each completed assay. The lag time for each condition was calculated as previously described. All results contained in histograms were presented as mean±SEM. Data were analyzed by the one-way analysis of variance with Dunnett's multiple comparisons between controls and compounds. Differences were considered statistically significant at p<0.05.
(§2) Compounds with the highest anti-fibrillary activity were tested at 3.125, 6.25, 12.5, 25, 50, and 100 μM to obtain dose-response curves with prepared α-syn and 2N4R tau at 6.25 μM and 6 μM, respectively. Compounds were tested with α-syn using a previously published procedure. Concerning the tau (isoform 2N4R) kinetics of fibril formation, measurements of ThT fluorescence were performed with a solution of the protein diluted to a final concentration of 6 μM in PBS (pH 7.4) supplemented with 1.5 μM heparin, 20 μM ThT, 2.5 mM DTT, and 100 μM compound. Aliquots of the diluted protein solution (100 μL each) were pipetted into the wells of a 96-well plate, and a Teflon ball was added to each well. The plate was incubated at 37° C. with constant shaking at 1,000 rpm in a Tecan Spark plate reader. ThT fluorescence was measured every 15 minutes with excitation and emission wavelengths of 440 nm and 480 nm, and the data were plotted using GraphPad Prism.

Assay [1] deals with T2, transthyretin fragment peptide (TTR81-127) (Homo sapiens, UniProt P02766).
T2 construct: TTR fragment 81-127 was obtained from AnaSpec; purchased AnaSpec; host or cells: synthetic peptide
As to the kind of experiment: ThT fluorescence assay of TTR81-127 fibril formation. The note with it: compounds at 100 μM, TTR81-127 10 μM, control 0.25% DMSO. As to the method:
as §1

For the next assay, the target named is T3, Aβ1-42 (Homo sapiens, UniProt P05067).
T3 construct: α-syn, Aβ1-40, Aβ1-42 were procured from rPeptide; purchased rPeptide
As to the kind of experiment: ThT fluorescence assay of Aβ1-42 fibril formation. The following applies: screen on prone-to-aggregate proteins (FIG. 2A, FIG. 4A); Aβ 7 μM. As to the method: as §1

The target of another assay is T4, tau isoform 2N4R (Homo sapiens, UniProt P10636).
T4 construct: made in house; host or cells: E. coli BL21(DE3)
Kind of assay: ThT kinetics of tau isoform 2N4R fibril formation. As to the method:
The bacterial expression plasmid consisting of the vector pRK172 carrying a cDNA encoding the human Tau 2N4R isoform was obtained from Dr. David Eliezer (Weill Cornell Medicine, New York, NJ). For protein expression, E. coli BL21(DE3) cells were transformed with the plasmid and grown in LB media supplemented with ampicillin (100 μg/mL). Protein over-expression was induced by the addition of 1 mM IPTG for 4 hours at 37° C., and cells were pelleted by centrifugation at 6,000 g for 15 minutes at 4° C. The cells were resuspended in lysis buffer (20 mM MES, 400 mM NaCl, 0.2 mM MgCl2, 1 mM EGTA, protease inhibitor cocktail (P8340, Sigma Aldrich), 0.25 mg/mL lysozyme, and 1 μg/mL DNase 1, pH 6.8) and lysed by a French press cell disruptor at 4° C., after which the lysate was boiled for 20 minutes. Denatured proteins were pelleted by centrifugation at 30,000 g for 30 minutes at 4° C., and the supernatant was dialyzed overnight against cation exchange buffer (20 mM MES, 50 mM NaCl, 1 mM MgCl2, 1 mM EGTA, 2 mM DTT, 0.1 mM PMSF, pH 6.8). The dialysate was loaded onto a HiPrep SP HP column, and proteins were eluted with a linear gradient ranging from 50 mM to 1 M NaCl. Fractions containing tau isoform 2N4R were pooled, and the resulting protein solution was dialyzed against PBS (pH 7.4) and stored at −80° C.
as §2

For another assay, the target named is T5, α-syn (Homo sapiens, UniProt P37840).
T5 construct: purchased rPeptide
Kind of assay: Transmission electron microscopy (TEM) of α-syn fibrils. The note with it: compound 100 μM. As to the method: Transmission electron microscopy (TEM). After performing analysis with ThT fluorescence assay, TEM was utilized to detect fibril formation. A volume of 10 μL was applied to a 400-mesh Formvar-carbon-coated copper grid (Electron Microscopy Sciences, Hatfield, PA). The grids were incubated for 1 minute and washed three times with distilled water. They were carefully air-dried and incubated for 1 minute in a fresh solution of 1% uranyl acetate. Samples were air-dried and observed using a transmission microscope. Visualization of the grids was performed with TEM (JEOL 1400 Flash, Japan). Acquisition of pictures was performed with settings of accelerating voltage of 100 kV and magnification of 25 k and/or 40 k.

T4 sequence (P10636 1-441 isoform P10636-8): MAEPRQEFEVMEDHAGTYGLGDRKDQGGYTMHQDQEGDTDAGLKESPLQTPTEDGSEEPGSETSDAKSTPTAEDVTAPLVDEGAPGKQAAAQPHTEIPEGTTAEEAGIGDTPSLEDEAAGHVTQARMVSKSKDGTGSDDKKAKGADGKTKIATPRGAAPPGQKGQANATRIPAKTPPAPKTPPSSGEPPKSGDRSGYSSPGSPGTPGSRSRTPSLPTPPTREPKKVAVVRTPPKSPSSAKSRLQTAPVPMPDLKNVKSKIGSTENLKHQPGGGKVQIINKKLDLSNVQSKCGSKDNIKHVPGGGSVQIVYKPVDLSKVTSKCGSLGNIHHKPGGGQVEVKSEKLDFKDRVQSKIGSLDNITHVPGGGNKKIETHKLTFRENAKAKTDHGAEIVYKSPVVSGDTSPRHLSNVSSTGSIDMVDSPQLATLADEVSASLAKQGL
T3 sequence (P05067 672-713 limits assumed): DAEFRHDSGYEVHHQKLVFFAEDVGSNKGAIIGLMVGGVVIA

As to `Nc1nsc2ccc([N+](=O)[O-])cc12` [A, 5-nitro-1,2-benzothiazol-3-amine], the “α-syn fibrillization (ThT), dose response” value on α-synuclein (α-syn) (3.125-100 μM, plateau phase) is listed as “protein fibrillization was reduced”. In addition, the remaining activity at 100 µM on α-synuclein (α-syn) (compounds at 100 μM, α-syn 6.25 μM, control 0.25% DMSO, read-out: ThT a-Syn (%), maximum thioflavin T (ThT) intensity in percentage) came out at 36.2 ± 3.1%. For the same compound, the “thioflavin T fluorescence intensity, α-syn” value at α-synuclein (α-syn) (screen on prone-to-aggregate proteins (FIG. 2A, FIG. 4A)) is on record as “significantly more effective at preventing the aggregation”. Also, the “ThT TTR81-127 (%), maximum thioflavin T (ThT) intensity in percentage” value in assay [1] was 54.7 ± 1.4%. In addition, in assay [1] (read-out: ThT TTR81-127 (%), maximum thioflavin T (ThT) intensity in percentage), the remaining activity at 100 µM is 54.7 ± 1.4%. The “thioflavin T fluorescence intensity, Aβ1-42” value at Aβ1-42 is reported as 27.5±4%. Moreover, at tau isoform 2N4R (3.125-100 μM, at 15 hours), the “tau isoform 2N4R fibrillization (ThT), dose response” value is given as “protein fibrillization was reduced”. In addition, at tau isoform 2N4R (tau 6 μM, compound 100 μM), the “lag time of tau isoform 2N4R fibril formation” value was “delayed the lag time” and the “production of tau isoform 2N4R fibrils (ThT kinetic aggregation curves)” value is on record as “demonstrating the best anti-fibrillary activity”. For the same compound, the “α-syn fibrils by TEM” value at α-syn was “clear effect in reducing α-syn and tau fibrillization”.

The values above are taken from patent publication US20260224538A1 (Purdue Research Foundation, priority 2023, published 2026).
